Measured values reported in patent publication US10016343B2, “Solid stick antiperspirant compositions” (The Procter & Gamble Company, priority 2013, dated 2018).

Assay: Hygroscopicity (equilibrium moisture pick up) of antiperspirant active
Assay type: physicochemical
Conditions: 86% RH, 20° C., 5 days
Description: One way to evaluate the hygroscopic nature of an antiperspirant active is to determine the equilibrium moisture pick up of the active after 5 days in a controlled relative humidity environment. Specific humidity chambers can be created placing saturated salt solutions in desiccators at a specific temperature. Different salts are used to create different humidities, for example potassium chloride can be used to make an 86% relative humidity (RH) environment at 20° C. In general there is an increase in moisture pick up as humidity is increased for the antiperspirant actives shown, however there are clear differences in slope and amount of moisture pick up at high humidity. Materials with higher slope and larger increases at high humidity (i.e. 86% RH) are considered to be more hygroscopic. The aluminum zirconium trichlorohydrate active (metal to chloride ratio=1.6) from Inventive Example 1 is the least hygroscopic (28% moisture pick up at 86% RH) with the aluminum zirconium tetrachlorohydrate active (metal to chloride ratio=1.2) being substantially more hygroscopic (40% moisture pick up at 86% RH). […] This may explain the substantial difference observed in the amount of sweat measured between Inventive Examples 1 and 2. […]

Row | Substance | moisture pick up (hygroscopicity) [%]
1 | aluminum zirconium tetrachlorohydrate | 40
2 | aluminum zirconium trichlorohydrate | 28
